Test results from patent publication US12325676B2, “Cationic lipid compound and composition for delivery of nucleic acids and use thereof” (Shenzhen Rhegen Biotechnology Co., Ltd., priority 2022, dated 2025).

Experiments:
[1] = Encapsulation rate of mRNA-loaded lipid nanoparticles (Ribogreen kit); type: physicochemical
Description: (§1) Luciferase mRNA was diluted in 10-100 mM citrate buffer at pH 4.0; the lipid components (cationic lipids shown in the present disclosure: DSPC:cholesterol:PEG lipids (DMG-PEG2000)) were dissolved in ethanol at a molar ratio of 50:10:38.5:1.5.
(§2) 3 mL of a mRNA buffer and 1 mL of a lipid solution were loaded into two 5 mL syringes respectively, and the syringes were installed on a microfluidic syringe pump. Chips were connected to the syringes and syringe pump flow rate was set. Clicking the start button of the syringe pump caused injection into the chip at a flow rate ratio of 3:1. Under observation of the color of the product at the exit of the chip, after discarding the first 5 milky white droplets (about 100 μL), the back-end sample was collected into an EP tube. The collected product was placed in a dialysis bag and dialyzed for 6 h (MWCO: 100 KDa) in 10 mM PBS (pH 7.4) intervals. Subsequently, after being concentrated by ultrafiltration to the desired concentration, the lipid nanoparticles were filtered through a 0.22 μm sterile filter and then stored at 4° C.
(§3) Tests were performed to calculate the encapsulation rate of the products according to the instructions of Ribogreen kit. Particle size and polydispersity index (PDI) detection as well as zeta potential analysis was performed on a Malvern Zetasizer nano instrument using standard assays.

[2] = Particle size, PDI and zeta potential of mRNA-loaded lipid nanoparticles (Malvern Zetasizer nano); type: physicochemical
Description: as §1, §2, §3

BALB/c mice [3] = experiment: In vivo expression of luciferase mRNA delivered by LNP, tail intravenous injection, small animal imaging; conditions: Table 3, 5 μg mRNA, female BALB/c mice, DLin-MC3-DMA = 100
Description: LUC-mRNA-lipid nanoparticles containing 5 μg mRNA (see SEQ ID NO: 1 in the Patent Application Publication CN114380724A for the corresponding nucleotide sequence of LUC-mRNA) were injected via tail intravenous injection in 6-8 week old female BALB/c mice, prepared as in Example 19. 100 μg of D-Luciferin Potassium Salt was injected via tail intravenous injection into the mice at specific time points and assayed using the PerkinElmer Small Animal Imaging System. Fluc is commonly used in mammalian cell cultures to measure gene expression and cell viability, and it emits biological fluorescent light in the presence of the substrate […]. The basic characteristics of the mRNA used include ARCA cap structure, polyA tail length of 120 nt, and complete substitution of pseudouridine.
The effect of delivering luciferase mRNA using more cationic lipids were validated according to the methods of Example 20 and Example 21.

BALB/c mice [4] = experiment: In vivo expression of luciferase mRNA delivered by LNP, lung nebulization; conditions: LUC-mRNA LNP, 5 μg mRNA, compared with Lipid M and SM-102
Description: LUC-mRNA-lipid nanoparticles containing 5 μg mRNA were administrated via lung nebulization in 6-8 week old BALB/c mice, prepared as in Example 19. 100 μg of D-Luciferin Potassium Salt was injected via tail intravenous injection into the mice at specific time points and assayed using the PerkinElmer Small Animal Imaging System.

BALB/c mice [5] = experiment: In vivo EPO protein expression after tail i.v. injection of EPO-mRNA LNP, serum ELISA; conditions: 6 hours after tail i.v. injection of 20 μg EPO-mRNA-lipid nanoparticles, female Balb/c mice
Description: In the example, the effects of in vivo transfection of erythropoietin (EPO) by various cationic liposomes were compared. Nanoparticles were prepared in the same manner as in Example 20, and the nucleotide sequence corresponding to the EPO mRNA used is given in CN114380724B, SEQ ID NO:2. After preparation, 20 μg of EPO-mRNA-lipid nanoparticles were injected via tail intravenous injection in 6-8 week female Balb/c mice. 6 hours later the mice were subjected to blood sampling from the eye frame. After centrifugation to separate the serum, EPO protein expression was determined using ELISA. The basic characteristics of the mRNA used include ARCA cap structure, polyA tail length of 100-120 nt, and complete substitution of pseudouridine.

[6] = Encapsulation rate of mRNA-loaded lipid nanoparticles (Ribogreen kit); type: physicochemical; conditions: Table 4 batch; EPO mRNA LNP prepared as Example 20
[7] = Particle size, PDI and zeta potential of mRNA-loaded lipid nanoparticles (Malvern Zetasizer nano); type: physicochemical; conditions: Table 4 batch; EPO mRNA LNP prepared as Example 20
SD rats = experiment: Abnormal toxicity of cationic lipid nanoparticles, tail i.v. injection, liver and kidney function; type: in vivo; conditions: EPO mRNA LNP, 5 mg/kg tail intravenous injection, female SD rats
Description: The nanoparticles prepared in Example 27 were used in this experiment. The nanoparticles were injected via tail intravenous injection at a dose of 5 mg/kg in female SD rats weighing 200-250 g. The […] in the control group were injected with a corresponding volume of normal saline. […] Blood samples were collected at 120 h after injection, and alanine transaminase (ALT), aspartate aminotransferase (AST), urea nitrogen (BUN), and serum creatinine (SCR) were measured using a fully automated biochemistry instrument as the evaluation indexes of hepatic and renal functions.

[8] = Table 1, Luciferase mRNA LNP, cationic lipid:DSPC:cholesterol:DMG-PEG2000 50:10:38.5:1.5 molar
[9] = Table 3 batch, luciferase mRNA LNP prepared as Example 20

CCCCCCCCOCC(C)C(=O)OCCCCCN(CCO)CCCCCCCC(=O)OC(CCCCCCCC)CCCCCCCC (stereo not shown) [Compound 7]
Encapsulation rate (%) [1, 8]: 96.1% | Encapsulation rate (%) [1, 9]: 96.8% | PDI [2, 8]: 0.17 | Particle size (nm) [2, 8]: 78.9 nm | Zeta potential (mV) [2, 8]: −3.77 mV | PDI [2, 9]: 0.15 | Particle size (nm) [2, 9]: 82.9 nm | relative fluorescence intensity (%) (BALB/c mice [3]): 754 ± 32% | fluorescent levels of mRNA expression (FIG. 2) (BALB/c mice [4]): superior to Lipid M and SM-102 | EPO concentration (BALB/c mice [5]): 4.21e+07 pg/mL | Encapsulation rate (%) [6]: 97.8% | PDI [7]: 0.09 | Particle size (nm) [7]: 88.8 nm

CCCCC/C=C\C/C=C\CCCCCCCCC(CCCCCCCC/C=C\C/C=C\CCCCC)OC(=O)CCCN(C)C [DLin-MC3-DMA, reference compound]
Encapsulation rate (%) [1, 8]: 87.6% | PDI [2, 8]: 0.19 | Particle size (nm) [2, 8]: 102.3 nm | Zeta potential (mV) [2, 8]: −0.03 mV | PDI [2, 9]: 0.16 | Particle size (nm) [2, 9]: 101.5 nm | relative fluorescence intensity (%) (BALB/c mice [3]): 100% | EPO concentration (BALB/c mice [5]): 4.37e+06 pg/mL | death after injection (time) (SD rats): ≤ 18 h | Encapsulation rate (%) [6]: 90.1% | PDI [7]: 0.19 | Particle size (nm) [7]: 97.6 nm
